The record followed here is patent US12329737B2, “Dendrilla membranosa compounds, derivatives thereof, and uses thereof” (UNIVERSITY OF SOUTH FLORIDA, priority 2018, dated 2025).

Structures are written as SMILES. Values after ≈ are worked out from the molar mass of the structure shown. Bounds are passed on as bounds.

Data set [1] has as its system J774A.1. In words: mammalian cytotoxicity assay. It counts as cell-based.
Data set [2] has as its system multidrug resistant S. aureus biofilm. In words: minimum biofilm eradication concentration (MBEC), MRSA biofilm. To be noted: for MBEC90: 90% of population eradicated compared to no treatment. In kind it is cell-based. An excerpt: Each sample tested in triplicate for all concentrations. Calculated based on no drug controls and represented as a log 10 scale. Error=±SEM. MBEC 90/50: level to which 90% or 50% of the population was eradicated compared to no treatment.

In data set [3] the test system is MRSA. In words: standard MRSA assay (MIC). It counts as cell-based. Particulars: Staphylococcus aureus.
Data set [4] has as its system MRSA biofilm. In words: standard biofilm assay. It counts as cell-based, Staphylococcus aureus.

For the compound `CC(=O)O[C@@H]1OC2OC(=O)[C@H](C)c3c([C@@]4(C)CCCC(C)(C)C4)ccc1c32` (stereo partly drawn) [Compound 1, aplysulphurin], the “Cytotoxicity (μM) against strain J774A.1” value in data set [1] stood at 12.3 µM.

`CC(=O)O[C@@H]1OC2OC(=O)[C@H](C)C3=C([C@@]4(C)CCCC(C)(C)C4)CCC1C32` (stereo partly drawn) [Compound 2, tetrahydroaplysulphurin]: the “Cytotoxicity (μM) against strain J774A.1” value in data set [1] is >133 µM.

Take `COC(=O)[C@H](C)c1c([C@@]2(C)CCCC(C)(C)C2)ccc2c1C(=O)OC2` [Compound 3, membranolide]: the MBEC90 in data set [2] is < 25 mg/mL. Also, the “Cytotoxicity (μM) against strain J774A.1” value in data set [1] was determined as 76.8 µM.

Regarding `COC(=O)[C@H](C)C1=C([C@@]2(C)CCCC(C)(C)C2)CCC2COC(=O)C12` (stereo partly drawn) [Compound 4, tetrahydromembranolide], the “Cytotoxicity (μM) against strain J774A.1” value in data set [1] worked out at 64.9 µM.

For the compound `CO[C@H]1OC(=O)[C@H](C)c2c([C@@]3(C)CCCC(C)(C)C3)ccc(C=O)c21` [Compound 5, membranoid A], the “Cytotoxicity (μM) against strain J774A.1” value in data set [1] was 54.6 µM.

`CO[C@H]1O[C@H](OC)c2c1ccc([C@@]1(C)CCCC(C)(C)C1)c2[C@@H](C)C(=O)O` [Compound 6, membranoid B]: in data set [1], the “Cytotoxicity (μM) against strain J774A.1” value was >133 µM.

With `CO[C@@H]1O[C@@H](OC)c2c1ccc([C@@]1(C)CCCC(C)(C)C1)c2[C@@H](C)C(=O)O` [Compound 7, membranoid C], in data set [2], the MRSA biofilm bioactivity entry is “lacked MRSA biofilm bioactivity”. In addition, in data set [1], the “Cytotoxicity (μM) against strain J774A.1” value was >133 µM.

`CO[C@@H]1O[C@H](OC)c2c1ccc([C@@]1(C)CCCC(C)(C)C1)c2[C@@H](C)C(=O)O` [Compound 8, membranoid D]: the MRSA biofilm bioactivity entry in data set [2] is given as “lacked MRSA biofilm bioactivity”. Further, in data set [1], the “Cytotoxicity (μM) against strain J774A.1” value is >133 µM.

For the compound `CO[C@H]1O[C@@H](OC)c2c1ccc([C@@]1(C)CCCC(C)(C)C1)c2[C@@H](C)C(=O)O` [Compound 9, membranoid E], in data set [1], the “Cytotoxicity (μM) against strain J774A.1” value was 95 µM.

As to `C[C@H]1C(=O)O[C@@H](O)c2c(C=O)ccc([C@@]3(C)CCCC(C)(C)C3)c21` [Compound 10, membranoid G], the “Cytotoxicity (μM) against strain J774A.1” value in data set [1] is >151 µM.

Consider `CO[C@@H]1O[C@@H](OC(C)=O)c2ccc([C@@]3(C)CCCC(C)(C)C3)c([C@@H](C)C(=O)O)c21` [Compound 11, membranoid X], for which the “Cytotoxicity (μM) against strain J774A.1” value in data set [1] was determined as 62.9 µM.

On to `COC(=O)[C@H](C)c1c([C@@]2(C)CCCC(C)(C)C2)ccc2c1[C@H](O)OC2=O` [Compound 12, membranoid Y], for which the “Cytotoxicity (μM) against strain J774A.1” value in data set [1] is >139 µM.

In turn, `CCC1=C(C=O)[C@H](C(=O)OC)CC[C@@H]1[C@@]1(C)CCCC(C)(C)C1` [Compound 17] displayed an MBEC90 in data set [2] of 50 mg/mL.

Consider `CC(=O)O[C@@H]1OC2OC(=O)[C@H](C)[C@@]34OO[C@@]([C@@]5(C)CCCC(C)(C)C5)(CCC1C23)O4` (stereo partly drawn) [Compound 18, Tetrahydroaplytrioxolane], for which the MRSA biofilm bioactivity entry in data set [2] is recorded as “lacked MRSA biofilm bioactivity”.

Turning to `CC(=O)O[C@@H]1O[C@H](OC(C)=O)[C@H]2C(=O)[C@@H]([C@@]3(C)CCCC(C)(C)C3)CC[C@@H]12` [Compound 19, keto-9, 11-dihydrogracilin A], in data set [2], the MBEC90 was 50 mg/mL.

Consider `C[C@@H](CO)c1c([C@@]2(C)CCCC(C)(C)C2)ccc(CO)c1CO` [Compound 20, Mebranolide triol], for which the MRSA biofilm bioactivity result in data set [2] was “lacked MRSA biofilm bioactivity”.

With `CC(=O)O[C@@H]1OC2OC(=O)C3=C(C)C([C@@]4(C)CCCC(C)(C)C4)CCC1C32` (stereo partly drawn) [Compound 24, Darwinolide], the MIC (usually the least concentration at which growth counts as inhibited) in data set [3] was ~133 µM (≈ 50 µg/mL). In data set [2], the MBEC90 is given as 35 mg/mL. For the same compound, the “mammalian (J773) toxicity” value in data set [1] (J773 cells, mammalian cytotoxicity assay) came out at 73.4 µM. The “Cytotoxicity (μM) against strain J774A.1” value in data set [1] is 20.13 µM. For the same compound, in data set [4], the “MIC in a standard biofilm assay” value came to 33.2 µM (≈ 12.5 µg/mL).
